# Assay results published in US9808496B2, “Use of a myrtle extract as an anti-biofilm agent against P. acnes” (PIERRE FABRE DERMO-COSMETIQUE, priority 2012, dated 2017).
# Experiments:
# Assay type in all cases: cell-based, Propionibacterium acnes
# P. acnes B872 (eryS) = assay: Activity of the combination erythromycin/myrtle extract on P. acnes biofilm (24-well microplate); conditions: erythromycin 1000 μg/ml alone, 24 h contact on 48 h biofilm
# Method: (§1) Myrtle extract is prepared according to example 2.
# (§2) • Four Propionibacterium acnes strains were selected: Two Erythromycin-Resistant Strains (ERY R) • Propionibacterium acnes CIP 110371 • clinical isolate R4 Two Erythromycin-Sensitive Strains (ERY S) • Propionibacterium acnes CIP 53117T • clinical isolate B872 Protocol
# (§3) A titrated suspension of P. acnes (about 10^6 CFU/ml), in minimal broth allowing no bacterial growth, was deposited in the wells of a 24-well microplate.
# (§4) The microplates are placed under anaerobic conditions at 37±2° C. for 48 h, the time established for biofilm to form.
# (§5) After 48 h, the supernatant of each well is discarded and then the wells are rinsed. Erythromycin and myrtle extract at various concentrations are added for a contact time of 24 h on the adhered cells (72 hours of adhesion in total).
# (§6) The erythromycin concentration selected is 1000 μg/ml.
# (§7) After 72 h of adhesion: • planktonic cells are counted • adhered (sessile) cells are counted after rinsing the well and then scraping in tryptone salt
# (§8) Controls were prepared in parallel (adhered+planktonic cells) • 72 h biofilm control (with the medium changed at 48 h) • myrtle control at various concentrations (added after 48 h/24 h of contact) • 1000 μg/ml erythromycin control (added at 48 h/24 h of contact) • myrtle extract control at the concentrations tested
# (§9) For all the wells in contact with erythromycin, 1 ml of each dilution is filtered on a membrane (Microfil®, Millipore) and then the filter is rinsed three times with 50 ml of sterile distilled water. The membranes are deposited on Columbia agar+5% sheep blood. The plates are incubated at 37±2° C. under anaerobic conditions. After 72 h to 96 h of incubation, the colony forming units (CFUs) are counted.
# (§10) For all the biofilm controls and the myrtle extract alone, 100 μl of each dilution is inoculated by streaking on Columbia agar+5% sheep blood. The plates are incubated at 37±2° C. under anaerobic conditions. After 72 h to 96 h of incubation, the CFUs are counted. Results
# (§11) This test consisted in evaluating the activity of erythromycin (1000 μg/ml) combined with myrtle extract, at concentrations of 0.03%, 0.001% and 0.0001%.
# (§12) The results are expressed in log of the population counted.
# [1] = test system: P. acnes CIP 110371 (eryR); assay: as above; conditions: erythromycin 1000 μg/ml alone, 24 h contact on 48 h biofilm, limit of detection 1.3 log
# Method: as §1, §2, §3, §4, §5, §6, §7, §8, §9, §10, §11, §12
# [2] = test system: P. acnes CIP 53117T (eryS); assay: as above; conditions: erythromycin 1000 μg/ml alone, 24 h contact on 48 h biofilm, limit of detection 1.3 log
# Method: as §1, §2, §3, §4, §5, §6, §7, §8, §9, §10, §11, §12
# P. acnes R4 (eryR) = assay: as above; conditions: erythromycin 1000 μg/ml alone, 24 h contact on 48 h biofilm
# Method: as §1, §2, §3, §4, §5, §6, §7, §8, §9, §10, §11, §12
# [3] = test system: two erythromycin-resistant strains (ERY R); assay: Bactericidal activity of erythromycin on isolated bacteria; conditions: 1000 μg/ml
# Method: as §6
# [4] = test system: P. acnes eryS strains and eryR strains; assay: Erythromycin/myrtle extract on P. acnes biofilm, general conclusion over the strains
# Method: as §2, §3, §4, §5, §7
smiles,measurement,setting,value
"CC[C@H]1OC(=O)[C@H](C)[C@@H](O[C@H]2C[C@@](C)(OC)[C@@H](O)[C@H](C)O2)[C@H](C)[C@@H](O[C@@H]2O[C@H](C)C[C@H](N(C)C)[C@H]2O)[C@](C)(O)C[C@@H](C)C(=O)[C@H](C)[C@@H](O)[C@]1(C)O [Ery, erythromycin]","Planktonic cells, Log (number of CFU/well)",P. acnes B872 (eryS); untreated control 4.0,1.3 Log (number of CFU/well)
same,"Adhered cells, Log (number of CFU/well)",P. acnes B872 (eryS); untreated control 4.4,4.0 Log (number of CFU/well)
same,"Planktonic cells, Log (number of CFU/well)",[1]; untreated control 5.0,4.2 Log (number of CFU/well)
same,"Adhered cells, Log (number of CFU/well)",[1]; untreated control 5.3,4.1 Log (number of CFU/well)
same,"Adhered cells, Log (number of CFU/well)",[2]; untreated control 5.1,4.3 Log (number of CFU/well)
same,"Planktonic cells, Log (number of CFU/well)",[2]; untreated control 5.5,1.3 Log (number of CFU/well)
same,"Planktonic cells, Log (number of CFU/well)",P. acnes R4 (eryR); untreated control 3.7,3.5 Log (number of CFU/well)
same,"Adhered cells, Log (number of CFU/well)",P. acnes R4 (eryR); untreated control 4.5,3.5 Log (number of CFU/well)
same,Bactericidal activity,[3],did not have bactericidal activity
same,Bactericidal activity of erythromycin alone,[4],high
